In article PMC8067721 (Pharmaceutics, 2021):

Key:
[1] = tested on: NT receptors (NTRS1, NTRS2, NTRS3) on HT-29 cells; assay: In vitro specific binding / competition assay with all NT receptors blocked; design: species or system human; details: antagonists applied together: 70 nM NTRC 824, 30 nM SR 48692, 10 nM SR 142948, […]; uptake profile almost linear
Experimental: In order to evaluate the specific binding due to the exclusive interaction of the peptide with its receptors, a competition assay was performed. This assay in which all NT receptors are blocked before incubating the labelled peptide is intended to highlight non-specific binding of NT to the cells. […] For this assessment, three different NT receptors antagonists were used, each having a preferential increased affinity for one of the receptors, allowing the blocking of all NTRs at the same time:
Afterwards, the medium containing unbound antagonists was removed and the cells were washed with 2 mL of fresh DMEM medium.

HT-29 cells = tested on: HT-29 cells; design: method as in PMID 9023294; details: cited from earlier work
NTRS2 = tested on: NTRS2; design: method as in PMID 25157640; details: cited from earlier work

| Compound | effect of antagonists on ^68Ga-DOTA-NT binding to colon HT-29 tumour cells [1] | inhibition of [^125I]ITyr^3-NT specific binding to HT-29 cells (HT-29 cells) | selectivity for NTRS2 over NTRS1 (NTRS2) [fold] |
| --- | --- | --- | --- |
| 2-[[5-(2,6-dimethoxyphenyl)-1-(4-(N-(3-dimethylaminopropyl)-N-methylcabamoyl)-2-isopropylphenyl)-1H-pyrazole-3-carbonyl]amino]adamantane-2-carboxylic acid [SR 142948] | inhibit | completely inhibits |  |
| Cc1ccc(S(=O)(=O)Nc2ccc3c(c2)c(C(=O)C(F)(F)F)cn3CC(=O)N[C@@H](CC(C)C)C(=O)O)cc1 [NTRC 824, N-[2-[5-[[(4-Methylphenyl)sulfonyl]amino]-3-(trifluoroacetyl)-1H-indol-1-yl]acetyl]-L-leucine] | inhibit |  | 150 |
| COc1cccc(OC)c1-c1cc(C(=O)NC2(C(=O)O)C3CC4CC(C3)CC2C4)nn1-c1ccnc2cc(Cl)ccc12 (centres unmarked) [SR 48692, 2-[[1-(7-chloroquinolin-4-yl)-5-(2,6-dimethoxyphenyl)-1H-pyrazol-3-carbonyl]amino] adamantane-2-carboxylic acid] | inhibit |  |  |
